In ChEMBL document CHEMBL5725469, “C17-aryl substituted betulinic acid analogs” (2018):

assay: HIV cell culture assay: MT-2 cells and 293T cells were obtained from the NIH AIDS Research and Reference Reagent Program. MT-2 cells were propagated in RPMI 1640 media supplemented with 10% heat inactivated fetal bovine serum, […]. The 293T cells were propagated in DMEM media supplemented with 10% heat inactivated fetal bovine serum (FBS), 100 units/mL penicillin G and 100 μg/mL streptomycin. The proviral DNA clone of NL4-3 was obtained from the NIH AIDS Research and Reference Reagent Program. A recombinant NL4-3 virus, in which a section of the nef gene from NL4-3 was replaced with the Renilla luciferase gene, was used as a reference virus. In addition, residue Gag P373 was converted to P373S. Briefly, the recombinant virus was prepared by transfection of the altered proviral clone of NL4-3. Transfections were performed in 293T cells using LipofectAMINE PLUS from Invitrogen (Carlsbad, Calif.), according to manufacturer's instruction. The virus was titered in MT-2 cells using luciferase enzyme activity as a marker. Luciferase was quantitated using the Dual Luciferase kit from Promega (Madison, Wis.), with modifications to the manufacturer's protocol. The diluted Passive Lysis solution was pre-mixed with the re-suspended Luciferase Assay Reagent and the re-suspended Stop & Glo Substrate (2:1:1 ratio). Fifty (50) μL of the mixture was added to each aspirated well on assay plates and luciferase activity was measured immediately on a Wallac TriLux (Perkin-Elmer). Antiviral activities of inhibitors toward the recombinant virus were quantified by measuring luciferase activity in cells infected for 4-5 days with NLRluc recombinants in the presence serial dilutions of the inhibitor.; assay type: cell-based

| Structure (SMILES) | EC50 [nM] |
| --- | --- |
| C=C(C)[C@@H]1CC[C@]2(c3ncn(CCN4CCS(=O)(=O)CC4)n3)CC[C@]3(C)[C@H](CC[C@@H]4[C@@]5(C)CC=C(c6ccc(C(=O)O)cc6)C(C)(C)[C@@H]5CC[C@]43C)[C@@H]12 | > 100 |
| C=C(C)[C@@H]1CC[C@]2(c3nnc(CN(C)C)o3)CC[C@]3(C)[C@H](CC[C@@H]4[C@@]5(C)CC=C(c6ccc(C(=O)O)cc6)C(C)(C)[C@@H]5CC[C@]43C)[C@@H]12 | > 100 |
| C=C(C)[C@@H]1CC[C@]2(c3nnco3)CC[C@]3(C)[C@H](CC[C@@H]4[C@@]5(C)CC=C(c6ccc(C(=O)O)cc6)C(C)(C)[C@@H]5CC[C@]43C)[C@@H]12 | > 100 |
| C=C(C)[C@@H]1CC[C@]2(C#Cc3ccsc3-c3nnn[nH]3)CC[C@]3(C)[C@H](CC[C@@H]4[C@@]5(C)CC=C(c6ccc(C(=O)O)cc6)C(C)(C)[C@@H]5CC[C@]43C)[C@@H]12 | < 100 |
| C=C(C)[C@@H]1CC[C@]2(c3ncnn3C)CC[C@]3(C)[C@H](CC[C@@H]4[C@@]5(C)CC=C(c6ccc(C(=O)O)cc6)C(C)(C)[C@@H]5CC[C@]43C)[C@@H]12 | > 100 |
| C=C(C)[C@@H]1CC[C@]2(c3nc[nH]n3)CC[C@]3(C)[C@H](CC[C@@H]4[C@@]5(C)CC=C(c6ccc(C(=O)O)cc6)C(C)(C)[C@@H]5CC[C@]43C)[C@@H]12 | > 100 |
